In experiment [1] the target is Human norepinephrine transporter (NET) (Homo sapiens, UniProt P23975). Nature of the experiment: Binding assay to human norepinephrine transporter (NET), [3H]-Nisoxetin. The following applies: human NET enriched membranes, 5 nM [3H]-Nisoxetin. On the procedure: Binding Assay to Human Norepinephrine Transporter (NET).
Human norepinephrine transporter (NET) enriched membranes (5 μg) were incubated with 5 nM of radiolabeled [3H]-Nisoxetin in assay buffer containing 50 mM Tris-HCl, 120 mM NaCl, 5 mM KCl, pH 7.4. NSB (non specific binding) was measured by adding 10 μM of desipramine. The binding of the test compound was measured at five different concentrations. After 60 min incubation at 4° C., binding reaction was terminated by filtering through Multiscreen GF/C (Millipore) presoaked in 0.5% polyethyleneimine in Vacuum Manifold Station, followed by 3 washes with ice-cold filtration buffer containing 50 mM Tris-HCl, 0.9% NaCl, pH 7.4. Filter plates were dried at 60° C. for 1 hour and 30 μl of scintillation cocktail were added to each well before radioactivity reading. Readings were performed in a Trilux 1450 Microbeta radioactive counter (Perkin Elmer).

Experiment [2] concerns the target Human α2δ-1 Subunit of Cav2.2 Calcium Channel (Homo sapiens, UniProt P54289). Briefly: Human α2δ-1 subunit of Cav2.2 calcium channel assay, [3H]-Gabapentin binding. The conditions noted are these: human α2δ-1 enriched membranes, 15 nM [3H]-Gabapentin. On the procedure:
Human α2δ-1 Subunit of Cav2.2 Calcium Channel Assay
Human α2δ-1 enriched membranes (2.5 μg) were incubated with 15 nM of radiolabeled [3H]-Gabapentin in assay buffer containing Hepes-KOH 10 mM, pH 7.4. NSB (non specific binding) was measured by adding 10 μM pregabalin. The binding of the test compound was measured at five different concentrations. After 60 min incubation at 27° C., binding reaction was terminated by filtering through Multiscreen GF/C (Millipore) presoaked in 0.5% polyethyleneimine in Vacuum Manifold Station, followed by 3 washes with ice-cold filtration buffer containing 50 mM Tris-HCl, pH 7.4. Filter plates were dried at 60° C. for 1 hour and 30 μl of scintillation cocktail were added to each well before radioactivity reading. Readings were performed in a Trilux 1450 Microbeta radioactive counter (Perkin Elmer).

Sequence of Human α2δ-1 Subunit of Cav2.2 Calcium Channel (P54289 25-1103): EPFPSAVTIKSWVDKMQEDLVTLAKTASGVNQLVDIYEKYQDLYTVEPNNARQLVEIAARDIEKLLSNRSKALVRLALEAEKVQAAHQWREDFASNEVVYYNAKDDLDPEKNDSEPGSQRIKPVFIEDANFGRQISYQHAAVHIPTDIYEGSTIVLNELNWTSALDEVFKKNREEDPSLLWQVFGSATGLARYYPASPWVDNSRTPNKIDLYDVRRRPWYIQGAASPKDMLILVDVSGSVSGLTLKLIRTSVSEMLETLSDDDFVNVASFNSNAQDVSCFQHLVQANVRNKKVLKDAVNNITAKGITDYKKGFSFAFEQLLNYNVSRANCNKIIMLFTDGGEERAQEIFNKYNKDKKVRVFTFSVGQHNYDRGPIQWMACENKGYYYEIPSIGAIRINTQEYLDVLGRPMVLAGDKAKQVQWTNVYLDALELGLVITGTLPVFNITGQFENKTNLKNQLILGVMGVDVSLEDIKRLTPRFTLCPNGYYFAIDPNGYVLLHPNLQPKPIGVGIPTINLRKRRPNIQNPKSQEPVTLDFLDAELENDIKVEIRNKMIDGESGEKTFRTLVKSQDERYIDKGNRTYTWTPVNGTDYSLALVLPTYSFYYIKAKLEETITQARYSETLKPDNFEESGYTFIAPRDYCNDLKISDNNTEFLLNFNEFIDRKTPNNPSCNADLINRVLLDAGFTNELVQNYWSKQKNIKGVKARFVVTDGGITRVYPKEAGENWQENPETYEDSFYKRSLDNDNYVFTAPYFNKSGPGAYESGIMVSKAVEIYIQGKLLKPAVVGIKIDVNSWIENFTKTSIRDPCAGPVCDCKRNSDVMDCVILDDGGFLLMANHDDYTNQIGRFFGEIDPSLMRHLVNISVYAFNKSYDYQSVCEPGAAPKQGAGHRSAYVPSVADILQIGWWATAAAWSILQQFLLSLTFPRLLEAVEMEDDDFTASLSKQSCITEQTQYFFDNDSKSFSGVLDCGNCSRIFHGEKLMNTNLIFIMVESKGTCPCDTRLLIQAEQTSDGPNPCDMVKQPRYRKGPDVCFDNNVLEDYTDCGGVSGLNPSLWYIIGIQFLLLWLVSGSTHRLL
Sequence of Human norepinephrine transporter (NET) (P23975 whole entry): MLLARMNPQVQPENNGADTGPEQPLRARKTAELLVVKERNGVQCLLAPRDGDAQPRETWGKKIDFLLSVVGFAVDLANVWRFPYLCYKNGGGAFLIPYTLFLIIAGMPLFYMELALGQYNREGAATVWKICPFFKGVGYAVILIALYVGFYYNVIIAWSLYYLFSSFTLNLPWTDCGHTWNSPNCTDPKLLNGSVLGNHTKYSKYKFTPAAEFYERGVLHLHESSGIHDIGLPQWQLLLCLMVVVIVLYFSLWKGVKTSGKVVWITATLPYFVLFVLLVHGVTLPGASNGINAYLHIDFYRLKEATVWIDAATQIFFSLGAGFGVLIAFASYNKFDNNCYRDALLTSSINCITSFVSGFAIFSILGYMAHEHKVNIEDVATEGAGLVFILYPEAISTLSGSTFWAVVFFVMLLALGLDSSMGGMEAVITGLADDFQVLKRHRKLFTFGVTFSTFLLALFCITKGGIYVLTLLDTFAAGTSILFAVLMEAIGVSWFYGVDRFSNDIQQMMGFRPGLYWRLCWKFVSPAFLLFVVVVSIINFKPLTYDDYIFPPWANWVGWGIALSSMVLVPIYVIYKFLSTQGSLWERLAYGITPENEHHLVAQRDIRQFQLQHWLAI

Regarding `Cc1nnc(N(C)C)c2nn(-c3cccc(OCC4CCN(CCc5ccccc5)CC4)c3)c(C)c12` [Example 53, N,N,3,4-Tetramethyl-2-(3-((1-phenethylpiperidin-4-yl)methoxy)phenyl)-2H-pyrazolo[3,4-d]pyridazin-7-amine], the values for the Ki in experiment [1] and in experiment [2] were 100 to 500 nM and 500 to 5000 nM, respectively.
For the compound `Cc1nnc(N(C)C)c2nn(-c3cccc(OC(CCNCCF)c4ccccc4)c3)c(C)c12` (stereo not shown) [Example 54, 2-(3-(3-((2-fluoroethyl)amino)-1-phenylpropoxy)phenyl)-N,N,3,4-tetramethyl-2H-pyrazolo[3,4-d]pyridazin-7-amine], the Ki fell in the range of 100 to 500 nM in experiment [1] and 500 to 5000 nM in experiment [2].
For `Cc1nnc(N(C)C)c2nn(-c3cccc(OC(CCNCC(F)F)c4ccccc4)c3)c(C)c12` (stereo not shown) [Example 55, 2-(3-(3-((2,2-difluoroethyl)amino)-1-phenylpropoxy)phenyl)-N,N,3,4-tetramethyl-2H-pyrazolo[3,4-d]pyridazin-7-amine], the figures for the Ki in experiment [1] and in experiment [2] were 500 to 1000 nM and 500 to 5000 nM, respectively.
The corresponding values for `CNCCC(Oc1cccc(-n2nc3c(N(C)C)nnc(C)c3c2C)c1)c1cccc(C(N)=O)c1` (stereo not shown) [Example 56, 3-(1-(3-(7-(Dimethylamino)-3,4-dimethyl-2H-pyrazolo[3,4-d]pyridazin-2-yl)phenoxy)-3-(methylamino)propyl)benzamide] are 100 to 500 nM and 500 to 5000 nM.
The corresponding values for `CNCCC(Oc1cccc(-n2nc3c(N(C)C)nnc(C)c3c2C)c1)c1ccc(C(N)=O)cc1` (stereo not shown) [Example 57, 4-(1-(3-(7-(dimethylamino)-3,4-dimethyl-2H-pyrazolo[3,4-d]pyridazin-2-yl)phenoxy)-3-(methylamino)propyl)benzamide] are 100 to 500 nM and 500 to 5000 nM.
For `CNCC[C@H](Oc1cccc(-n2nc3c(N(C)C)nnc(C)c3c2C)c1)c1ccccc1` [Example 58, (S)-N,N,3,4-Tetramethyl-2-(3-(3-(methylamino)-1-phenylpropoxy)phenyl)-2H-pyrazolo[3,4-d]pyridazin-7-amine], in that order: less than 100 nM and 500 to 5000 nM.
For the compound `CNCC[C@@H](Oc1cccc(-n2nc3c(N(C)C)nnc(C)c3c2C)c1)c1ccccc1` [Example 59, (R)-N,N,3,4-tetramethyl-2-(3-(3-(methylamino)-1-phenylpropoxy)phenyl)-2H-pyrazolo[3,4-d]pyridazin-7-amine], the Ki in experiment [1] fell in the range of 100 to 500 nM; in experiment [2], 500 to 5000 nM.
The corresponding values for `CNC[C@H](Oc1cccc(-n2nc3c(N(C)C)nnc(C)c3c2C)c1)c1ccccc1` [Example 60, (R)-N,N,3,4-Tetramethyl-2-(3-(2-(methylamino)-1-phenylethoxy)phenyl)-2H-pyrazolo[3,4-d]pyridazin-7-amine] are 100 to 500 nM and 500 to 5000 nM.
For `CNC[C@@H](Oc1cccc(-n2nc3c(N(C)C)nnc(C)c3c2C)c1)c1ccccc1` [Example 61, (S)-N,N,3,4-tetramethyl-2-(3-(2-(methylamino)-1-phenylethoxy)phenyl)-2H-pyrazolo[3,4-d]pyridazin-7-amine], in that order: less than 100 nM and 500 to 5000 nM.
For `CNCC[C@@H](Oc1cccc(-n2nc3c(N(C)C)nnc(C)c3c2C)c1)c1ccccc1F` [Example 62, (R)-2-(3-(1-(2-Fluorophenyl)-3-(methylamino)propoxy)phenyl)-N,N,3,4-tetramethyl-2H-pyrazolo[3,4-d]pyridazin-7-amine], in that order: less than 100 nM and 500 to 5000 nM.
Consider `CNCC[C@H](Oc1cccc(-n2nc3c(N(C)C)nnc(C)c3c2C)c1)c1ccccc1F` [Example 63, (S)-2-(3-(1-(2-fluorophenyl)-3-(methylamino)propoxy)phenyl)-N,N,3,4-tetramethyl-2H-pyrazolo[3,4-d]pyridazin-7-amine], for which the Ki was less than 100 nM in experiment [1] and 500 to 5000 nM in experiment [2].
Turning to `CNCC[C@H](Oc1cccc(-n2nc3c(N(C)C)nnc(C)c3c2C)c1)c1cccnc1` [Example 64, (S)-N,N,3,4-tetramethyl-2-(3-(3-(methylamino)-1-(pyridin-3-yl)propoxy)phenyl)-2H-pyrazolo[3,4-d]pyridazin-7-amine], the Ki in experiment [1] was 100 to 500 nM; in experiment [2], less than 500 nM.
On to `CNCC[C@@H](Oc1cccc(-n2nc3c(N(C)C)nnc(C)c3c2C)c1)c1cccnc1` [Example 65, (R)-N,N,3,4-tetramethyl-2-(3-(3-(methylamino)-1-(pyridin-3-yl)propoxy)phenyl)-2H-pyrazolo[3,4-d]pyridazin-7-amine], for which the Ki lay in the range of 500 to 1000 nM in experiment [1] and 500 to 5000 nM in experiment [2].
`CNCCC(Oc1cccc(-n2c(C)c3c(C)nnc(C)c3c2C)c1)c1ccccc1F` (stereo not shown) [Example 66, 3-(2-fluorophenyl)-N-methyl-3-(3-(1,4,5,7-tetramethyl-6H-pyrrolo[3,4-d]pyridazin-6-yl)phenoxy)propan-1-amine]: the Ki in experiment [1] fell in the range of 500 to 1000 nM; in experiment [2], 500 to 5000 nM.
In the case of `CNCCC(Oc1cccc(-n2c(C)c3c(C)nnc(C)c3c2C)c1)c1cccc(F)c1` (stereo not shown) [Example 67, 3-(3-fluorophenyl)-N-methyl-3-(3-(1,4,5,7-tetramethyl-6H-pyrrolo[3,4-d]pyridazin-6-yl)phenoxy)propan-1-amine], the Ki in experiment [1] lay within 100 to 500 nM; in experiment [2], 500 to 5000 nM.
Take `CNCC[C@H](Oc1cccc(-n2c(C)c3c(C)nnc(C)c3c2C)c1)c1cccc(F)c1` [Example 68, (S)-3-(3-Fluorophenyl)-N-methyl-3-(3-(1,4,5,7-tetramethyl-6H-pyrrolo[3,4-d]pyridazin-6-yl)phenoxy)propan-1-amine]: the figures for the Ki in experiment [1] and in experiment [2] were 100 to 500 nM and no less than 5000 nM, respectively.
For the compound `CNCC[C@@H](Oc1cccc(-n2c(C)c3c(C)nnc(C)c3c2C)c1)c1cccc(F)c1` [Example 69, (R)-3-(3-fluorophenyl)-N-methyl-3-(3-(1,4,5,7-tetramethyl-6H-pyrrolo[3,4-d]pyridazin-6-yl)phenoxy)propan-1-amine], the values for the Ki in experiment [1] and in experiment [2] were 100 to 500 nM and less than 500 nM, respectively.

The values above are taken from US20200190081A1, “META SUBSTITUTED PHENYLPYRAZOLO- AND PHENYLPYRROLO- PYRIDAZINE DERIVATIVES HAVING MULTIMODAL ACTIVITY AGAINST PAIN” (ESTEVE PHARMACEUTICALS, S.A., priority 2016, published 2020).
